Seven compounds from patent US4963566A, “Benzimidazolyl-sulfinyl-tetrahydroquinolines” (Otsuka Pharmaceutical Co., Ltd., priority 1986, dated 1990) can be followed below.

The assay addresses T1, H^+ +K^+ ATPase (Sus scrofa, UniProt P19156).
T1 construct: prepared from porcine stomach; from tissue; host or cells: porcine stomach
Nature of the assay: H+ +K+ ATPase inhibition (inorganic phosphoric acid release). As to conditions: enzyme prepared from porcine stomach; 30 min with compound at room temperature, pH 6.1; then 30 min at 37° C., pH 7.4, 20 mM KCl. The format is biochemical. Here is the method:
H^+ +K^+ ATPase (adenosine triphosphatase) (amount of protein: 10 μg) prepared from porcine stomach was added to a Pipes-TRIS [i.e. 2-amino-2-(hydroxymethyl)-1,3-propanediol] buffer solution (pH 6.1) containing 2 mM of piperazine N,N'-bis(2-ethanesulfonic acid), and the mixture was let stand at room temperature. A test compound was dissolved in dimethyl formamide, and the mixture was added to said H^+ +K^+ ATPase buffer solution so that the final concentration should be 1% and let stand for reaction for 30 minutes at room temperature. Then a 75 mM Pipes-TRIS buffer (1 ml, pH 7.4) (containing 4 mM MgCl2, 4 mM Na2 ATP, and 20 mM KCl) and a 75 mM Pipes-TRIS buffer (1 ml, pH 7.4) (containing 4 mM MgCl2, and 4 mM Na2 ATP) were added to the solution individually to make two kinds of samples and these samples were presented for reaction for 30 minutes at 37° C. 40% Trichloroacetic acid (0.3 ml) was added to each sample to stop the reaction. The solution were subjected to centrifugal separation (3000 rpm) for 10 minutes, and the supernatant was taken off, then the formed inorganic phosphoric acid was measured by Fiske and Subbarow's method [J. Biol. Chem. vol. 66, 375 (1925)]. The value of deducting the amount of inorganic phosphoric acid taken from the Pipes-Tris buffer not containing 20 mM KCl from that taken from the Pipes-Tris buffer containing 20 mM KCl was calculated in terms of unit protein and unit hour to be defined as an activity index of enzyme. Inhibition level (%) in doses of administration was estimated by control values and activity indices of enzyme, and from the obtained inhibition level (%), IC50 (dose of administration of compounds to inhibit in 50%) was obtained.

The structures appear in SMILES notation.

T1 sequence (P19156 2-1034 limits assumed): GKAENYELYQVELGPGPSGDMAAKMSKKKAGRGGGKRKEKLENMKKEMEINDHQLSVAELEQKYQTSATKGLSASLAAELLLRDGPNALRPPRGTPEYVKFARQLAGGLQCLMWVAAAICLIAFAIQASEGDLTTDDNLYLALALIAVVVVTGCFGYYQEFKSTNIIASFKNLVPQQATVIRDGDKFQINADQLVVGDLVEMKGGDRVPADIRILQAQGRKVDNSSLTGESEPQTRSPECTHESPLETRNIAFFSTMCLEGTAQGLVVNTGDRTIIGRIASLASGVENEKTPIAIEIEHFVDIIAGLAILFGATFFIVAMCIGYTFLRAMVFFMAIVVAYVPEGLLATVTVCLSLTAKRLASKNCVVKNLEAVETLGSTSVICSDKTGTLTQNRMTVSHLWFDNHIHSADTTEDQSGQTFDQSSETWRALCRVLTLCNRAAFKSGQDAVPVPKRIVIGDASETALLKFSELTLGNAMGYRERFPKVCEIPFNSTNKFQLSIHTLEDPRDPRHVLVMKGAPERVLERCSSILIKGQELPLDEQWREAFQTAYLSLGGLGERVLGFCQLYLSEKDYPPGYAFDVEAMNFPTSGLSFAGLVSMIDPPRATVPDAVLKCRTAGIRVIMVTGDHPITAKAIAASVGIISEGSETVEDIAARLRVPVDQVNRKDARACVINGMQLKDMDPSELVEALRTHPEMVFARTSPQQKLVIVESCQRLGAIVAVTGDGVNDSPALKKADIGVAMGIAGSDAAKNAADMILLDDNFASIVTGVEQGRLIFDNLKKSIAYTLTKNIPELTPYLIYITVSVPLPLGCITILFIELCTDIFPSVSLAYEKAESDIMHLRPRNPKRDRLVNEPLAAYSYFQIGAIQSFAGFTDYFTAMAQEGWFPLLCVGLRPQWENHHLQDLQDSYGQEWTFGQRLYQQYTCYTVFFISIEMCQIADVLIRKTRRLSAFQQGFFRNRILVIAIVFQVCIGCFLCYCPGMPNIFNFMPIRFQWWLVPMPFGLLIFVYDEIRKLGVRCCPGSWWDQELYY
T1 sequence (P18434 whole entry partner): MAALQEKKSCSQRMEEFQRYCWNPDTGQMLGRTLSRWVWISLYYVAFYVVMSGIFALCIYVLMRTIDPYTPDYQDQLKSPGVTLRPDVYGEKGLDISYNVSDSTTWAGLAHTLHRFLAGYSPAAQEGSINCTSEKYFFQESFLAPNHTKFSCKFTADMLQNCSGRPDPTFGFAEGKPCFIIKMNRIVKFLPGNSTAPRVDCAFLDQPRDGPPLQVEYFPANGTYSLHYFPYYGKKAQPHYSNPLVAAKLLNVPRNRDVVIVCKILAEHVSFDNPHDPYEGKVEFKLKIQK

The IC50 is the concentration that inhibits the measured activity by half. For the compound `CCN1CCC(C)c2cccc(C[S+]([O-])c3nc4cc(OC)c(F)cc4[nH]3)c21` (stereo not shown) [Test compound No. 37, 1-ethyl-8-(5-fluoro-6-methoxy-2-benzimidazolyl)sulfinylmethyl-4-methyl-1,2,3,4-tetrahydroquinoline], the half-inhibitory concentration (IC50) is 890 nM.
`CCN1CCC(CO)c2cccc(C[S+]([O-])c3nc4cc(OC)c(F)cc4[nH]3)c21` (stereo not shown) [Test compound No. 63, 1-ethyl-8-(5-fluoro-6-methoxy-2-benzimidazolyl)sulfinylmethyl-4-hydroxymethyl-1,2,3,4-tetrahydroquinoline]: the IC50 was 4500 nM.
Regarding `CCN1CCCc2cccc(C[S+]([O-])c3nc4cc(C)c(C)cc4[nH]3)c21` (stereo not shown) [Test compound No. 13, 1-ethyl-8-(5,6-dimethyl-2-benzimidazolyl)sulfinylmethyl-1,2,3,4-tetrahydroquinoline], the IC50 is 170 nM.
Turning to `CCN1CCCc2cccc(C[S+]([O-])c3nc4ccc(C(C)=O)cc4[nH]3)c21` (stereo not shown) [Test compound No. 9, 1-ethyl-8-(5-acetyl-2-benzimidazolyl)sulfinylmethyl-1,2,3,4-tetrahydroquinoline], the half-inhibitory concentration (IC50) turned out to be 2200 nM.
`CCN1CCC(N(C)C2CC2)c2cccc(C[S+]([O-])c3nc4cc(F)c(OC)cc4[nH]3)c21` (stereo not shown) [Test compound No. 64, 1-ethyl-8-(5-fluoro-6-methoxy-2-benzimidazolyl)sulfinylmethyl-4-(N-methyl-N-cyclopropyl)amino-1,2,3,4-tetrahydroquinoline]: the concentration for half-maximal inhibition (IC50) turned out to be 4000 nM.
`CCN1CCCc2cccc(C[S+]([O-])c3nc4ccc(C(F)(F)F)cc4[nH]3)c21` (stereo not shown) [Test compound No. 10, 1-ethyl-8-(5-trifluoromethyl-2-benzimidazolyl)sulfinylmethyl-1,2,3,4-tetrahydroquinoline]: the IC50 turned out to be 370 nM.
For `CCN1CCCc2cc(C)cc(C[S+]([O-])c3nc4ccccc4[nH]3)c21` (stereo not shown) [Test compound No. 32, 1-ethyl-6-methyl-8-(2-benzimidazolyl)sulfinylmethyl-1,2,3,4-tetrahydroquinoline], the IC50 was found to be 920 nM.
